Data published in patent US11584763B2, “Chromenopyridine derivatives as phosphatidylinositol phosphate kinase inhibitors” (HIBERCELL, INC., priority 2017, dated 2023).

How the values were obtained:
PIP4K2B = biological target: T1, PIP4K2B (Homo sapiens, UniProt P78356); experiment: Trans-FI P kinase assay PIP4K2B (PIP4KtypeIIB inhibition assay); format: biochemical; settings: compounds listed under IC50 bin headings; 100 uM GTP; read-out: Trans-FI P kinase assays: PIP4K2B IC50
T1 construct: made in house; host or cells: E. coli
T1 sequence (P78356 1-416): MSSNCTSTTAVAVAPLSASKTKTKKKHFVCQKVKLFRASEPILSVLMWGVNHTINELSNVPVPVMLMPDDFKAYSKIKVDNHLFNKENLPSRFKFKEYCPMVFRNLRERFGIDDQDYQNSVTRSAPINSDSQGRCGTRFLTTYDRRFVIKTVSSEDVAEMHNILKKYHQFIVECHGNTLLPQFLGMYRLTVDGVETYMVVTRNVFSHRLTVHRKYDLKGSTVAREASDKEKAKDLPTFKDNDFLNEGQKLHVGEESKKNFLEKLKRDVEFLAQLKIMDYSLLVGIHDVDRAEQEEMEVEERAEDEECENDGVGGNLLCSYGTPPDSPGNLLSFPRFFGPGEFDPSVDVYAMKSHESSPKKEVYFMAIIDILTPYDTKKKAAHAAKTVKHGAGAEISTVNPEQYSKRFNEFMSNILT
From the text: GST tagged PIP4KtypeIIA and B enzymes were overexpressed in E. Coli and purified to >80% homogeneity. Phosphatidyl inositol-5-phosphate (PI5P, Cat. #850152, Avanti Polar Lipids Inc.) was used as the lipid substrate and phosphatidyl ethanolamine (DOPE 18:1, Cat. #850725, Avanti Polar Lipids Inc.) was used as the carrier lipid for assays. Ultrapure ATP and GTP was purchased from Bellbrooke Labs. ADP Glo reagents were obtained from Promega. Transcreener FI reagent was obtained from Bellbrooke labs.
GST-tagged PIP4KtypeIIB (3.4 uL, 2.77 mg/mL) was diluted to 5 mL using HNE buffer to yield 5× enzyme stock (25 nM)
Lipid Preparation: In a 10 mL pyrex glass vial, 1 ug of PI5P and 1 ug of DOPE were suspended in 2.5 mL of HEPES buffer mix and 2.5 mL of H:E buffer. The contents were mixed and sonicated for 3 min to yield a translucent lipid stock.
Compound Preparation: Compounds were stored as 5 mM stocks in neat DMSO as room temperature in glass vials. 5 mM stocks were diluted to 2 mM and then serially diluted (3×) in neat DMSO in 96 well polypropylene plates. From the serially diluted stocks, 3 uL was delivered into 250 uL of 25% DMSO (in water) to generate 5× compound stocks. Typically, the highest compound conc. was 24 uM.
The assay volume was kept at 25 uL. To each well of the reaction plate, 10 uL of lipid stock (1:1 ratio PI5P:DOPE) was delivered. This was followed by the addition of 5 uL of compound in 25% DMSO. Then, to each well, 5 uL of 25 nM (5×) typeIIB enzyme was delivered. The contents were mixed well and incubated for 1 h at 27 C. After 1 h, reaction was initiated by adding 5 uL of 500 uM GTP and the contents were mixed well with a multi-channel pipetteman. The final concentration of the reagents are as follows: 50 mM HEPES, pH 7.3, 10 mM MgCl2, 20 mM NaCl, 0.01% v/v triton-X100, 5% DMSO, 100 uM GTP, 80 uM (2 ug) PI5P, 2 ug DOPE, and 5 nM PIP4KIIB Typically, the highest conc. of compounds was 4.8 uM and the lowest conc. was 0.
After 2 h, the reaction was quenched by adding 25 uL of transcreener FI reagent. The contents were incubated at RT for 1 h and the Fluorescence (Ex: 584 Em: 623) was read using Molecular Devices Paradigm plate reader. […] The blanks were averaged and subtracted from all other wells. Using a calibration curve, RFU was converted to uM GDP (product). IC50 was calculated by plotting the residual activity (expressed as % No inhibitor control) vs. log [Inh. conc.]

PIP4K 2A = biological target: T2, PIP4K 2A (Homo sapiens, UniProt P48426); experiment: ADP-glo kinase assay PIP4K 2A; format: biochemical; design: 4 nM PIP4K2A (full length protein, SignalChem); purchased SignalChem; settings: compounds listed under IC50 bin headings
T2 sequence (P48426 1-406): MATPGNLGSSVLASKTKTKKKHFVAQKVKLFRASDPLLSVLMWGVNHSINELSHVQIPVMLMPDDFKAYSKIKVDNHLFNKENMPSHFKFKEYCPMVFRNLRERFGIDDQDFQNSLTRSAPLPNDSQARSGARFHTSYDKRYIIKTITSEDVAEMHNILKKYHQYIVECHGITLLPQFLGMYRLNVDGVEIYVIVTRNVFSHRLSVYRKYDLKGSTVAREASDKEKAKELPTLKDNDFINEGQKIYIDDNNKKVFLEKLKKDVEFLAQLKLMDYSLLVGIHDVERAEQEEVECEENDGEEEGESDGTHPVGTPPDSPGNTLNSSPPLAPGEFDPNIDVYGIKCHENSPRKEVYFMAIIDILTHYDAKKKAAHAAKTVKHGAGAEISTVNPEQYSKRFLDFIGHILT
Description: Dilution series of the compounds were prepared in DMSO at 100 times the final assay concentration (n1=n0/3 in 10 points). The compounds were further diluted to three times the assay concentration in assay buffer (20 mM MOPS pH 7.2, 25 mM magnesium chloride, 0.005% Tween 20). 6 μL of the diluted compounds were added to a 384 well assay plate followed by 9 μL of a mix consisting of 4 nM PIP4K2A (full length protein, SignalChem) and 100 μM PI(5)P diC8 (Tebu-Bio). Enzyme and compounds were pre-incubated at room temperature for 15 minutes.
Then 3 μL of a solution containing 60 μM ATP (Promega) in assay buffer was added to the wells containing compound and enzyme and mixing was performed by pipetting several times. The reaction was incubated at room temperature for 1 h. Then 18 μL of ADP-Glo™ Reagent (Promega) was added to stop the kinase reaction and deplete the unconsumed ATP, mixing was performed by pipetting several times. The plate was incubated at room temperature for 40 minutes before addition of 36 μL of Kinase Detection Reagent (Promega) to convert ADP to ATP and introduce luciferase and luciferin to detect ATP. The reaction was incubated at room temperature for 40 minutes before the luminescence was measured in a in a Victor 3V 1420 multilabel counter (Perkin Elmer).
Percent inhibition of the compounds as compared to dimethyl sulfoxide treated control samples was calculated. Compound concentration versus percent inhibition were fitted to generate IC50 values.

Row | Structure (SMILES) | IC50 (PIP4K2B) [nM] | IC50 (PIP4K 2A) [nM]
1 | CC1Oc2cc(N3CCCC3=O)ccc2-c2cnc(Nc3cncc(NC(=O)c4cccc5c4OCO5)c3)cc21 (stereo not drawn) [Example 137, N-(5-((5-methyl-8-(2-oxopyrrolidin-1-yl)-5H-chromeno[4,3-c]pyridin-3-yl)amino)pyridin-3-yl)benzo[d][1,3]dioxole-4-carboxamide] | 10 to 100 | 1 to 10
2 | CC1Oc2cc(N3CCCC3=O)ccc2-c2cnc(Nc3cncc(NC(=O)C4Cc5ccccc5C4)c3)cc21 (stereo not drawn) [Example 138, N-(5-((5-methyl-8-(2-oxopyrrolidin-1-yl)-5H-chromeno[4,3-c]pyridin-3-yl)amino)pyridin-3-yl)-2,3-dihydro-1H-indene-2-carboxamide] | 10 to 100 | 10 to 100
3 | CC1Oc2cc(N3CCCC3=O)ccc2-c2cnc(Nc3cncc(NC(=O)c4cn5ccccc5n4)c3)cc21 (stereo not drawn) [Example 139, N-(5-((5-methyl-8-(2-oxopyrrolidin-1-yl)-5H-chromeno[4,3-c]pyridin-3-yl)amino)pyridin-3-yl)imidazo[1,2-a]pyridine-2-carboxamide] | 10 to 100 | 1 to 10
4 | CC1Oc2cc(N3CCCC3=O)ccc2-c2cnc(Nc3cncc(NC(=O)c4cc5ccccn5n4)c3)cc21 (stereo not drawn) [Example 140, N-(5-((5-methyl-8-(2-oxopyrrolidin-1-yl)-5H-chromeno[4,3-c]pyridin-3-yl)amino)pyridin-3-yl)pyrazolo[1,5-a]pyridine-2-carboxamide] | 10 to 100 | 1 to 10
5 | CC1Oc2cc(N3CCCC3=O)ccc2-c2cnc(Nc3cncc(NC(=O)c4cc5ccccc5[nH]4)c3)cc21 (stereo not drawn) [Example 141, N-(5-((5-methyl-8-(2-oxopyrrolidin-1-yl)-5H-chromeno[4,3-c]pyridin-3-yl)amino)pyridin-3-yl)-1H-indole-2-carboxamide] | 10 to 100 | 1 to 10
6 | CC1Oc2cc(N3CCCC3=O)ccc2-c2cnc(Nc3cncc(NC(=O)C4Cc5ccccc5O4)c3)cc21 (stereo not drawn) [Example 142, N-(5-((5-methyl-8-(2-oxopyrrolidin-1-yl)-5H-chromeno[4,3-c]pyridin-3-yl)amino)pyridin-3-yl)-2,3-dihydrobenzofuran-2-carboxamide] | 100 to 1000 | 10 to 100
7 | CC1Oc2cc(N3CCCC3=O)ccc2-c2cnc(Nc3cncc(NC(=O)c4cnc5ccccn45)c3)cc21 (stereo not drawn) [Example 143, N-(5-((5-methyl-8-(2-oxopyrrolidin-1-yl)-5H-chromeno[4,3-c]pyridin-3-yl)amino)pyridin-3-yl)imidazo[1,2-a]pyridine-3-carboxamide] | 1 to 10 | ≤ 1
8 | CC1Oc2cc(N3CCCC3=O)ccc2-c2cnc(Nc3cncc(NC(=O)c4cnn5ccccc45)c3)cc21 (stereo not drawn) [Example 144, N-(5-((5-methyl-8-(2-oxopyrrolidin-1-yl)-5H-chromeno[4,3-c]pyridin-3-yl)amino)pyridin-3-yl)pyrazolo[1,5-a]pyridine-3-carboxamide] | 1 to 10 | ≤ 1
9 | CC1Oc2cc(N3CCCC3=O)ccc2-c2cnc(Nc3cncc(NC(=O)Cc4cnc5ccccn45)c3)cc21 (stereo not drawn) [Example 145, 2-(imidazo[1,2-a]pyridin-3-yl)-N-(5-((5-methyl-8-(2-oxopyrrolidin-1-yl)-5H-chromeno[4,3-c]pyridin-3-yl)amino)pyridin-3-yl)acetamide] | 10 to 100 | 1 to 10
10 | CC1Oc2cc(N3CCCC3=O)ccc2-c2cnc(Nc3cncc(NC(=O)c4cccc5nccn45)c3)cc21 (stereo not drawn) [Example 146, N-(5-((5-methyl-8-(2-oxopyrrolidin-1-yl)-5H-chromeno[4,3-c]pyridin-3-yl)amino)pyridin-3-yl)imidazo[1,2-a]pyridine-5-carboxamide] | 1 to 10 | ≤ 1
11 | CC1Oc2cc(N3CCCC3=O)ccc2-c2cnc(Nc3cncc(NC(=O)c4ccn5ccnc5c4)c3)cc21 (stereo not drawn) [Example 147, N-(5-((5-methyl-8-(2-oxopyrrolidin-1-yl)-5H-chromeno[4,3-c]pyridin-3-yl)amino)pyridin-3-yl)imidazo[1,2-a]pyridine-7-carboxamide] | 10 to 100 | 1 to 10
12 | COC(=O)N1CCOc2ncc(Nc3cc4c(cn3)-c3cc(F)c(N5CCCC5=O)cc3OC4C)cc21 (stereo not drawn) [Example 150, methyl 7-((9-fluoro-5-methyl-8-(2-oxopyrrolidin-1-yl)-5H-chromeno[4,3-c]pyridin-3-yl)amino)-2,3-dihydro-1H-pyrido[2,3-b][1,4]oxazine-1-carboxylate] | 1 to 10 | ≤ 1
13 | CC1Oc2cc(N3CCCC3=O)c(F)cc2-c2cnc(Nc3cncc(N4CCNC4=O)c3)cc21 (stereo not drawn) [Example 151, 1-(5-((9-fluoro-5-methyl-8-(2-oxopyrrolidin-1-yl)-5H-chromeno[4,3-c]pyridin-3-yl)amino)pyridin-3-yl)imidazolidin-2-one] | 10 to 100 | 1 to 10
14 | CC1C[C@H]2COc3ncc(Nc4cc5c(cn4)-c4cc(F)c(N6CCCC6=O)cc4OC5C)cc3N2C1=O (stereo partly drawn) [Example 152, (6aS)-2-((9-fluoro-5-methyl-8-(2-oxopyrrolidin-1-yl)-5H-chromeno[4,3-c]pyridin-3-yl)amino)-8-methyl-6,6a,7,8-tetrahydro-9H-pyrido[2,3-b]pyrrolo[1,2-d][1,4]oxazin-9-one] | 1 to 10 | ≤ 1
15 | CC1Oc2cc(N3CCCC3=O)c(F)cc2-c2cnc(Nc3cnc4c(c3)N3C(=O)C(C)(C)C[C@H]3CO4)cc21 (stereo partly drawn) [Example 153, (6aS)-2-((9-fluoro-5-methyl-8-(2-oxopyrrolidin-1-yl)-5H-chromeno[4,3-c]pyridin-3-yl)amino)-8,8-dimethyl-6,6a,7,8-tetrahydro-9H-pyrido[2,3-b]pyrrolo[1,2-d][1,4]oxazin-9-one] | 1 to 10 | ≤ 1
